Results on two compounds are retold here after patent US20100331282A1, “PYRIDINE DERIVATIVE CONTAINING ((PHOSPHONOOXY)METHYL)PYRIDINIUM RING, AND ANTIFUNGAL AGENT CONTAINING THESE DERIVATIVE” (priority 2009, published 2010).

Values after ≈ are worked out from the molar mass of the structure shown.

The nature of data set [1]: Comparative test of solubility in water (Britton-Robinson buffer). Format: physicochemical. The following applies: aqueous buffer, Britton-Robinson buffer (ion strength of 0.3) at 25° C. The protocol:
3-(3-(4-(Pyridin-2-ylmethoxy)-benzyl)-isoxazol-5-yl)-pyridin-2-ylamine described in Reference Example 1, which is the parent compound, and the compound of Example 1 were compared for solubility in a Britton-Robinson buffer (ion strength of 0.3) at 25° C.

Data set [2] can be described thus: Conversion into parent compound (active form) in human liver S9 fraction. Format: in vitro ADME. The following applies: human liver S9 reaction solution, 0.2 mg/mL protein, 10 μmol/L compound, pH 7.4, 37° C., 0, 30, 60 minutes, LC-MS (FIG. 1). The protocol:
(§1) A suspension (pH of 7.4) containing human and monkey liver S9 fractions (with a protein concentration of 0.22 mg/mL), 0.5 mmol/L magnesium chloride, and 100 mmol/L tris-HCl was prepared over ice (various reaction solutions A). 30 μL of a 100 μmol/mL aqueous solution of the compound according to the present invention (the compound of Example 1) was added to the various reaction solutions A (for a final compound concentration of 10 μmol/L) to obtain various liver S9 reaction solutions (with a final protein concentration of 0.2 mg/mL), and these were stored on ice until (2) was carried out. A control sample was prepared (reaction buffer solution) by adding 30 μL of a […] aqueous solution of the compound according to the present invention (the compound of Example 1) to 0.27 mL of a buffer (pH of 7.4) containing 0.5 mmol/L magnesium chloride and 100 mmol/L tris-HCl. […]
(§2) (3) The Concentrations of the Compound According to the Present Invention (the Compound of Example 1) and the Parent Compound (the Compound of Reference Example 1) in the Reaction Solution were Quantified by LC-MS.
(§3) The concentrations of the compound according to the present invention (the compound of Example 1) and the parent compound (the compound of Reference Example 1) in the reaction solution were measured by the method described in 2. above. […]

The nature of data set [3]: Conversion into parent compound (active form) in monkey liver S9 fraction. It counts as in vitro ADME. The following applies: monkey liver S9 reaction solution, 0.2 mg/mL protein, 10 μmol/L compound, pH 7.4, 37° C., 0, 30, 60 minutes, LC-MS (FIG. 2). The protocol:
as §1, §2, §3

Data set [4] has as its system C. albicans CAF2-1 strain. Put plainly: Anti-Candida activity (MIC measurement). The settings on record: CAF21STRAIN, RPMI1640 medium, 42-48 hours at 35° C., visual inspection, read-out: Anti-Candida (minimum inhibitory concentration, MIC). It counts as cell-based. The method, then: (§4) For the C. albicans CAF2-1 strain, a fungal suspension from a standing culture for 48 hours at 30° C. in a Sabouraud dextrose liquid culture medium (SDB) was diluted with RPMI1640 medium to adjust a fungal suspension of 1.2×10^3 cells/mL. For the A. fumigatus Tsukuba strain, −80° C. stored strain was diluted with RPMI1640 medium to adjust to a fungal suspension of 4.5×10^3 cells/mL.
(§5) Using a U-bottomed 96 well plate, 8 samples/plate (A to H) of sample dilution solutions were prepared. On the 2nd to 12th rows were dispensed 10 μl of dimethyl sulfoxide solution. Weighted sample was dissolved in dimethyl sulfoxide to prepare a 2.5 mg/mL solution, 20 μl of this solution was added to the first row of the prepared plate, and 12 steps of two-folded step dilutions (10 μl of solution+10 μl of dimethyl sulfoxide solution) were performed on the plate. This sample dilution solution was dispensed in the amount of 1 μl to a flat-bottomed 96 well plate for MIC measurement to prepare a sample dilution plate.
(§6) The fungal suspension prepared in (1) was used in the amount of […] to inoculate the flat-bottomed 96 well plate containing 1 μL/well of the test compound dilution prepared in (2), and a standing culture was carried out aerobically for 42-48 hours at 35° C.

The subject of data set [5] is A. fumigatus Tsukuba strain. Put plainly: Anti-Aspergillus activity (MIC measurement). The settings on record: RPMI1640 medium, 42-48 hours at 35° C., visual inspection, read-out: Anti-Aspergillus activity (minimum inhibitory concentration, MIC). It counts as cell-based. The protocol: as §4, §5, §6

The solubility is the dissolved amount per volume that the medium holds.

In the case of `Nc1ncccc1-c1cc(Cc2ccc(OCc3cccc[n+]3COP(=O)([O-])O)cc2)no1` [Example 1, 2-((4-((5-(2-Amino-3-pyridinyl)-3-isoxazolyl)methyl)phenoxy)methyl)-1-((phosphonooxy)methyl)pyridinium mono-trifluoroacetate], the solubility in data set [1] (pH 3), in data set [1] (pH 7) and in data set [1] (pH 9) was greater than 70000 µg/mL in each case. Also, the “Conversion into the parent compound (compound of Reference Example 1)” value in data set [2] and in data set [3] was “converted into the parent compound” in each case.
Consider `Nc1ncccc1-c1cc(Cc2ccc(OCc3ccccn3)cc2)no1` [Reference Example 1, 3-(3-(4-(Pyridin-2-ylmethoxy)-benzyl)-isoxazol-5-yl)-pyridin-2-ylamine], for which the solubility in data set [1] (pH 3) was 400 µg/mL (≈ 1120 µM); in data set [1] (pH 7) it was less than 100 µg/mL; in data set [1] (pH 9), less than 100 µg/mL. In addition, the MIC in data set [4] was determined as 0.2 µg/mL (≈ 0.558 µM); in data set [5], 0.39 µg/mL (≈ 1.09 µM).
